According to PMC2754045 (Biochemistry, 2009):
Read-outs that look alike come from different tables or passages of the source. Marks after values point to notes of the source that are not given here. Bridges are numbered along the chain shown (N, C = ends). Where no end group is shown, it is not given here.

How the values were obtained:
mTRΔ8 [1] = molecular target: T1, mTRΔ8 (Mus musculus, UniProt Q9JLT4); assay: Substrate reduction by truncated mammalian TR; format: biochemical; conditions: for pH optimum of substrate reduction: truncated Δ8 enzyme; for Reduction by the truncated enzyme (in words): direct reduction by the N-terminal reaction center
[2] = cited from earlier work
DmTRΔ8 [3] = molecular target: T2, DmTRΔ8 (Drosophila melanogaster, UniProt P91938); assay: Substrate reduction by truncated Drosophila TR; format: biochemical
T2 sequence (P91938 1-483 isoform P91938-2 limits assumed): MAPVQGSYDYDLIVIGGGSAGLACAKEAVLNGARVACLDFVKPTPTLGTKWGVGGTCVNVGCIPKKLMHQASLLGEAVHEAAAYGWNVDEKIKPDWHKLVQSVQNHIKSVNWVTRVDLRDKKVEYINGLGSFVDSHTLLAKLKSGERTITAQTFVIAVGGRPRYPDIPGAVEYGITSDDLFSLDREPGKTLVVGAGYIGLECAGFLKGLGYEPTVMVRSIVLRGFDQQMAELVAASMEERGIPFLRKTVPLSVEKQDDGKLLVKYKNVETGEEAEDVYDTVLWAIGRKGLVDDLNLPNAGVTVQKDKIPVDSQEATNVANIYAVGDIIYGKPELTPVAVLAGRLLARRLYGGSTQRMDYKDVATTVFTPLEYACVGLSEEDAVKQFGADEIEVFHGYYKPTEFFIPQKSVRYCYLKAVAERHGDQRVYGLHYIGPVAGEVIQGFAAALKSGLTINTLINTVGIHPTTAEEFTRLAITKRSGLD

mTR-GCUG [4] = molecular target: T3, mTR-GCUG (Mus musculus, UniProt Q9JLT4); assay: Substrate reduction by full-length wild type mammalian TR
DmTRΔ8 [5] = molecular target: T2, DmTRΔ8; conditions: pH 7.0; cited from earlier work
DmTR-SCCS = DmTR-SCCS (Drosophila melanogaster, UniProt P91938); assay: Substrate reduction by full-length Drosophila TR
Chain of DmTR-SCCS (P91938 1-491 isoform P91938-2): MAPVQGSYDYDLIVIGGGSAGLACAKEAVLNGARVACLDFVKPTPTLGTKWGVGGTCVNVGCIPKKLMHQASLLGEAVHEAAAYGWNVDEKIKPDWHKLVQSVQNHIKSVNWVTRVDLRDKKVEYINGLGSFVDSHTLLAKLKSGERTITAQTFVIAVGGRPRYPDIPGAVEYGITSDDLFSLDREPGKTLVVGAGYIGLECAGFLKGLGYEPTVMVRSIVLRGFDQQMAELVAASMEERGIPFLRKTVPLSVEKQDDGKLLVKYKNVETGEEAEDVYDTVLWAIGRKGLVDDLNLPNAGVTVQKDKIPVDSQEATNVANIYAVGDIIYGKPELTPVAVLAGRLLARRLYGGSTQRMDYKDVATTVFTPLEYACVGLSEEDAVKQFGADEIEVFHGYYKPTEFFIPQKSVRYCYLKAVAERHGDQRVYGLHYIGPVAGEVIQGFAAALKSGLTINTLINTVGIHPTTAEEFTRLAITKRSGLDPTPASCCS

mTRΔ8 [6] = molecular target: T1, mTRΔ8; conditions: pH 7.0; cited from earlier work
mTRΔ8 [7] = molecular target: T1, mTRΔ8; assay: Inhibition of TR by gold compounds; format: biochemical; conditions: truncated enzyme missing C-terminal tail, 2 nM enzyme, 3 mM DTNB, pH 7.4
mTR-GCUG [8] = molecular target: T3, mTR-GCUG; assay: Inhibition of TR by gold compounds; format: biochemical; conditions: full-length wild type (Sec) enzyme, 4 nM enzyme, 3 mM DTNB, pH 7.4
mTR-GCCG = mTR-GCCG (Mus musculus, UniProt Q9JLT4); format: biochemical; conditions: full-length enzyme without Sec (Cys2 mutant), 4 nM enzyme, 3 mM DTNB, pH 7.4

Question: With O[C@@H]1CSSC[C@H]1O (relative stereo) [DTT(ox), trans-4,5-dihydroxy-1,2-dithiane] as the compound, how does the “Activity at 5 mM Substrate” value (mTRΔ8 [1]; pH 7.0) read?
Answer: 0.234 mol NADPH/min/mol TR

Question: What about the “Leaving Group pKa” value [2] of the same compound?
Answer: 9.2 ^e

Question: What about the “Activity at 5 mM Substrate” value (DmTRΔ8 [3]; pH 7.0) of the same compound?
Answer: 0.109 mol NADPH/min/mol TR

Question: For O=S(O)O [sulfite], which “Activity as substrate (in words)” value (mTR-GCUG [4]; TR form not stated, data not shown) is on record?
Answer: unable to detect activity

Question: For “PTPASCCS(ox): Cys1-Cys2 vicinal disulfide peptide substrate of DmTR (disulfide 6-7)”, which “Activity at 5 mM Substrate” value (DmTRΔ8 [5]) is on record?
Answer: 233 mol NADPH/min/mol TR

Question: For N[C@@H](CCC(=O)N[C@@H](CSN=O)C(=O)NCC(=O)O)C(=O)O [GSNO, S-nitrosoglutathione], which “Leaving Group pKa” value ([2]; HNO in GSNO) is on record?
Answer: 4.7

Question: With O=[Se]([O-])[O-].[Na+].[Na+] [selenite, sodium selenite] as the compound, how does the “Activity lower than the WT enzyme” value (mTRΔ8 [1]; mTRΔ8 versus WT, pH 7.0) read?
Answer: 6 fold

Question: What about the “pH optimum of substrate reduction” value (mTRΔ8 [1]) of the same compound?
Answer: ~6.0

Question: What does the source list for N[C@@H](C[Se][Se]C[C@H](N)C(=O)O)C(=O)O [selenocystine]?
Answer: Reduction by the truncated enzyme (in words) (mTRΔ8 [1]): cannot directly reduce; pH optimum of substrate reduction (mTRΔ8 [1]): ~8.0; Difference in activities between the mammalian enzyme and DmTR (DmTR-SCCS; pH 7.0, 91 μM substrate): ~ 3 fold

Question: With “PTVTGCCG(ox): peptide containing a Cys1-Cys2 vicinal disulfide bond (8-membered ring) (disulfide 6-7)” as the compound, how does the “Activity at 5 mM Substrate” value (mTRΔ8 [6]) read?
Answer: 0.153 mol NADPH/min/mol TR

Question: For CC(=O)OC[C@H]1O[C@@H]([S-])[C@H](OC(C)=O)[C@@H](OC(C)=O)[C@@H]1OC(C)=O.CCP(CC)CC.[Au+] [auranofin], which IC50 (mTRΔ8 [7]) is on record?
Answer: 850 nM

Question: And the IC50 (mTR-GCUG [8])?
Answer: 75 nM

Question: For NC(=O)CCCCC1CCSS1 (centres unmarked) [lipoamide], which “Higher activity in presence of 50 mM acetate” value (mTRΔ8 [1]; pH 6.1) is on record?
Answer: 23.6%

Question: And the “Higher activity in presence of 50 mM acetate” value (mTRΔ8 [1]; pH 7.0)?
Answer: 17.5%

Question: What about the “Drop in Km compared to lipoic acid” value (mTRΔ8 [1]; truncated enzyme) of the same compound?
Answer: ~3 fold

Question: What about the “pH optimum of substrate reduction” value (mTRΔ8 [1]) of the same compound?
Answer: ~ 8.5

Question: With OC[C@H]1O[C@H]([S-])[C@H](O)[C@@H](O)[C@@H]1O.[Au+] [aurothioglucose] as the compound, how does the IC50 (mTRΔ8 [7]) read?
Answer: 25 nM

Question: And the IC50 (mTR-GCUG [8])?
Answer: 83 nM

Question: What about the IC50 (mTR-GCCG) of the same compound?
Answer: 142 nM

Question: For O=C(O)c1cc(SSc2ccc([N+](=O)[O-])c(C(=O)O)c2)ccc1[N+](=O)[O-] [DTNB, 5,5′dithio-bis(2-nitrobenzoic acid), reference compound], which “Activity at 5 mM Substrate” value (mTRΔ8 [1]; pH 7.0) is on record?
Answer: 2430 mol NADPH/min/mol TR

Question: What about the “Activity at 5 mM Substrate” value (DmTRΔ8 [3]; pH 7.0) of the same compound?
Answer: 519 mol NADPH/min/mol TR

Question: With O=C(O)CCCC[C@@H]1CCSS1 [Lipoic Acid, lipoic acid] as the compound, how does the “kcat increase compared to the WT enzyme at pH 7.0” value (mTRΔ8 [1]; mTRΔ8 at pH 6.1) read?
Answer: ~3.6 fold

Question: What about the “Activity at 5 mM Substrate” value (mTRΔ8 [1]; pH 6.1) of the same compound?
Answer: 102 mol NADPH/min/mol TR

Question: And the “Activity at 5 mM Substrate” value (mTRΔ8 [1]; pH 7.0)?
Answer: 87.7 mol NADPH/min/mol TR

Question: And the “pH optimum of substrate reduction” value (mTRΔ8 [1])?
Answer: 6.1

Question: And the “pH optimum of substrate reduction” value (mTR-GCUG [4]; full-length enzyme)?
Answer: ~7.5

Question: And the “pH optimum of substrate reduction” value (DmTR-SCCS; full-length DmTR)?
Answer: ~7.5

Question: And the “Turnover faster in comparison to DTT(ox)” value (DmTRΔ8 [3]; 5 mM substrate, pH 7.0)?
Answer: 190 fold

Question: What about the “Activity at 5 mM Substrate” value (DmTRΔ8 [3]; pH 7.0) of the same compound?
Answer: 20.8 mol NADPH/min/mol TR

Question: And the “pH optimum of substrate reduction” value (DmTRΔ8 [3]; truncated DmTRΔ8)?
Answer: ~7.5

Question: With N[C@@H](CSSC[C@H](N)C(=O)O)C(=O)O [cystine] as the compound, how does the “Reduction by the truncated enzyme (in words)” value (mTRΔ8 [1]) read?
Answer: could not be reduced

Question: What about the “Reduction by the WT enzyme (in words)” value (mTR-GCUG [4]) of the same compound?
Answer: cannot be reduced

Question: What about the “Leaving Group pKa” value ([2]; thiolate) of the same compound?
Answer: ~ 8.3
